{"source": "patent US12595269B2", "about": "“Morpholine-like monoamine releasers” (Solvonis Therapeutics Ireland Holdings Limited, priority 2022, dated 2026)", "key": {"human 5-HT2A receptor": {"molecular_target": "T1, human 5-HT2A receptor (Homo sapiens, UniProt P28223)", "T1 construct": "expressed in transfected cells; host or cells: CHO", "T1 sequence (P28223 whole entry)": "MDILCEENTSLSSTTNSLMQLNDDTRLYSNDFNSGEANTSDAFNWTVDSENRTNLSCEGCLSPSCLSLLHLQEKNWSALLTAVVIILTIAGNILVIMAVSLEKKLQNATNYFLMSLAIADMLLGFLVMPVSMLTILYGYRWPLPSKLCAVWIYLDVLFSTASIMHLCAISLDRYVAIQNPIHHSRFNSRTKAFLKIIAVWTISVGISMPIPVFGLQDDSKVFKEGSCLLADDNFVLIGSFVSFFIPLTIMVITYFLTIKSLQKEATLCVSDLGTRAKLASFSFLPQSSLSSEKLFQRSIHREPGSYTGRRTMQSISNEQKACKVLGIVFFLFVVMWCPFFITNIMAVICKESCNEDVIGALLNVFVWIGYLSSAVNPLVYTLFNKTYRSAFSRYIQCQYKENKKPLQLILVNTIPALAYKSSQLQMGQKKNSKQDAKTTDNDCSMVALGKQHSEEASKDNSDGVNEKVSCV", "assay": "Intracellular calcium response (FLIPR) in CHO cells expressing human 5-HT2A receptor, agonist and antagonist modes", "format": "cell-based", "experimental": "Methods and Procedure: Selectivity for the 5-HT2A receptor was assessed by measuring [Ca^2+]; in a CHO recombinant cell line stably expressing the human 5-HT2A receptor, using Fluorometric Imaging Plate Reader (FLIPR TETRA, Molecular Devices).\nThe day before the experiment, CHO cells were seeded into clear-bottom 384-well plates at a density of 10,000 cells per well, in F-12K Medium (ThermoFisher #21127) supplemented with 10% dialyzed fetal bovine serum, and grown overnight at 37° C., 5% CO2.\nOn the day of the experiment, the medium was replaced with assay buffer (20 mM HEPES, 145 mM NaCl, 5 mM KCl, 5.5 mM glucose, 1 mM MgCl2, 2 mM CaCl2 and 2.5 mM probenecid, pH 7.4) containing the cytoplasmic Ca^2+ indicator Fluo-4 AM at 2 μM and 0.02% Pluronic F-127. After an incubation of 45-60 minutes at 37° C., 0% CO2, cells were washed by Microplate Washer (BIOTEK) 384 with assay buffer, and the plate was transferred in the FLIPR TETRA. Then, intracellular fluorescence was measured in real time by FLIPR TETRA (excitation wavelength at 470-495 nm, emission wavelength at 515-575 nm), using a dual addition protocol.\nIn the first addition, test compounds (11 points of 1:4 serial dilution, 0.5% DMSO final) were added to the cell plate to evaluate their effect on intracellular calcium levels. In the event of a response, the signal was elaborated for the determination of pEC50/EC50 values. […] Inhibition of 5-HT response vs. vehicle effect (0.5% DMSO) was elaborated for the determination of pIC50/IC50 values. […] A CRC of ketanserin was used as the internal antagonist control."}, "[1]": {"assay": "Solubility in PBS pH 7.4 by HPLC-UV", "format": "physicochemical", "details": "PBS buffer, aqueous buffer, kinetic from dmso stock; PBS pH 7.4, about 2% DMSO, 120 minutes at room temperature", "procedure": "Methods and Procedure: This study was designed in compliance with previously described procedures to assure data integrity and adherence to GLP principles. Control compounds included ibuprofen as a reference for high solubility and progesterone as a reference for low solubility. Stock solutions of compounds described herein (20 mM) were prepared in DMSO, on the same day of the experiment when feasible.\nThese solutions were compared with an external standard solution of known concentration via HPLC-UV To prepare the standard, 4 μL from a 20 mM compound stock solution was added to DMSO in a vial/well, and mixed with shaking at room temperature for 10 minutes. […]\nConcentrations were determined by comparing UV absorbance of the test solution and of the known standard solution following HPLC separation using a generic fast gradient method employing a DAD detector and UV detection at 230 and 254 nm. […] The solubility of each compound was expressed as the ratio of compound amount in the sample test solution to the amount of compound in the standard solution, calculated from the equation “solubility of sample=peak area of sample/peak area of standard×concentration of standard.”"}}, "note": "Like-named read-outs stand apart in the source and are kept apart here."}
{"molecule": "Clc1ccc(C23CNC(CO2)C3)cc1Cl", "note": "(stereo not drawn) [522A, 1-(3,4-dichlorophenyl)-2-oxa-5-azabicyclo[2.2.1]heptane]", "values": [{"measurement": "EC50", "setting": "human 5-HT2A receptor; agonist mode, CHO cells, calcium response, read-out: 5-HT2A agonist selectivity (pEC50) (converted)", "result": 50.1, "unit": "µM"}, {"measurement": "EC50", "setting": "human 5-HT2A receptor; antagonist mode, versus serotonin EC80, read-out: 5-HT2A antagonist selectivity (represented as pEC50) (converted)", "result": 3.98, "unit": "µM"}, {"measurement": "solubility at 120 min", "setting": "[1]", "result": 384, "unit": "µM"}]}
{"molecule": "CNC(C)Cc1ccc2c(c1)OCO2", "note": "(stereo not drawn) [MDMA, reference compound]", "values": [{"measurement": "EC50", "setting": "human 5-HT2A receptor; 5-HT2A agonist selectivity (pEC50), agonist mode, CHO cells, calcium response", "result": "> 50.1", "unit": "µM"}, {"measurement": "EC50", "setting": "human 5-HT2A receptor; 5-HT2A antagonist selectivity (represented as pEC50), antagonist mode, versus serotonin EC80", "result": "> 50.1", "unit": "µM"}, {"measurement": "solubility at 120 min", "setting": "[1]", "result": 386, "unit": "µM"}]}
